Measured values from patent publication US4170656A, “Compositions containing cis-2-benzoyl-3-hydroxy-crotononitrile used to treat inflammation and joint deterioration” (priority 1978, dated 1979).

What was measured:
[1] = Carrageenin induced paw edema in rats (acute anti-inflammatory activity); type: in vivo, Royal Hart, Wistar strain rats; settings: 250 mg./kg. by gavage; 5 hours after drug (4 hours after carrageenin); ratio greater than 1.41 is active
Procedure: In determining the acute anti-inflammatory activity of the cis-2-benzoyl-3-hydroxy-2-alkenonitriles of the present invention, Royal Hart, Wistar strain rats, ranging in weight from 80 to 90 grams were used. The rats were fasted overnight prior to dosing but had free access to water. The test compounds were administered in aqueous suspension, by gavage, in a volume of 1.7 ml. per 50 grams of rat [corresponds to hydration volume used by Winter, et al., Proc. Soc. […] The phlogistic agent used was carrageenin prepared as a sterile 1% suspension in 0.9% aqueous sodium chloride for routine testing. A volume of 0.05 ml. was injected through a 26 gauge needle into the plantar tissue of the right hind paw. Measurements were made 5 hours after drug administration (4 hours after carrageenin challenge). Volumes of both the normal and carrageenin inflammed feet were determined. The difference between the two measurements is considered to be the increased edema due to the carrageenin administration.

[2] = Adjuvant induced arthritis in rats (Freund's adjuvant); type: in vivo, Royal Hart, Wistar strain rats; settings: for Dead/Treated At 21 Days: days 0-13
Procedure: Groups of three Royal Hart, Wistar strain rats weighing 200±10 grams each were injected intradermally in the right hind paw with Freund's adjuvant (dried human tubercle bacilli in a mineral oil vehicle) at a dose of 2 mg./kg. of body weight. Test compound was administered orally in a 1.5% starch vehicle at various doses once daily on days 0 through 13 post challenge. Control rats were treated in a similar manner, but given only starch vehicle. On the 14th and 21st day post challenge the diameter of the injected paw (primary lesion) was measured by micrometer caliper. The volume of inflamed paws were estimated from these measurements and the results are expressed as percent inhibition of swelling as compared to controls. At the same time, the other inflamed sites, such as ears, paws and tail (seconday lesions) were observed and each rat was graded as to degree of inflammation and swelling present. The grading is based on a scale of 0 to 24, where 0 represents a complete absence of induced arthritic nodules and 24 represents the maximum degree of inflammation. The mean grade for each treated group is calculated and the effects of each compound are expressed as percent inhibition of the control grade. Table I records the results of tests conducted with a typical compound of the present invention and known anti-inflammatory agents.

[3] = S. Wong et al. (1973); G. R. Bobalick et al. (1974); cited from earlier work
[4] = Ultraviolet induced erythema in guinea pigs; type: in vivo, Albino guinea pigs; set-up: key: sum of 3 sites, each 0 = none, 0.5 = faint, 1.0 = distinct; max 3.0; settings: maximum 3.0
Procedure: Albino guinea pigs were depilitated on their flanks, the evening before testing, with a standard mixture of barium sulfide and gum acacia. On the morning of the test, groups of four guinea pigs were dosed by gavage one hour prior (-1 hour) to ultraviolet exposure. At 0 hour they were restrained in a plastic container which allows exposure of 3 circular spots. They were then exposed to ultraviolet irradiation from a "Hanovia" Kromayer lamp, model 10, for 60 seconds. At one and four hours, the degree of erythema for each of the three sites was assessed according to the following scoring system: 0= no erythema, 0.5=incomplete circle or faint erythema, and 1.0=complete circle of distinct erythema. Thus, the maximum score for each animal was 3.0.

COc1ccc2c(c1)c(CC(=O)O)c(C)n2C(=O)c1ccc(Cl)cc1 [Indomethacin]
C/T Edema Ratio [1]: 2.9 | % Inhibition of Control Grade (secondary lesion) ([2]; oral 0.25 mg./kg., Day 14): 22% | % Inhibition of Swelling (primary lesion) ([2]; oral 0.25 mg./kg., Day 14): 30% | Mean Weight Gain ([2]; oral 0.25 mg./kg., Day 14): 51 grams | % Inhibition of Control Grade (secondary lesion) ([2]; oral 0.25 mg./kg., Day 21): 4% | % Inhibition of Swelling (primary lesion) ([2]; oral 0.25 mg./kg., Day 21): 4% | Mean Weight Gain ([2]; oral 0.25 mg./kg., Day 21): 57 grams | Dead/Treated At 21 Days ([2]; oral 0.25 mg./kg.): 0/9 | % Inhibition of Control Grade (secondary lesion) ([2]; oral 0.5 mg./kg., Day 14): 25% | % Inhibition of Swelling (primary lesion) ([2]; oral 0.5 mg./kg., Day 14): 40% | Mean Weight Gain ([2]; oral 0.5 mg./kg., Day 14): 53 grams | % Inhibition of Control Grade (secondary lesion) ([2]; oral 0.5 mg./kg., Day 21): 17% | % Inhibition of Swelling (primary lesion) ([2]; oral 0.5 mg./kg., Day 21): 20% | Mean Weight Gain ([2]; oral 0.5 mg./kg., Day 21): 51 grams | Dead/Treated At 21 Days ([2]; oral 0.5 mg./kg.): 5/54 | % Inhibition of Control Grade (secondary lesion) ([2]; oral 1 mg./kg., Day 14): 34% | % Inhibition of Swelling (primary lesion) ([2]; oral 1 mg./kg., Day 14): 46% | Mean Weight Gain ([2]; oral 1 mg./kg., Day 14): 63 grams | % Inhibition of Control Grade (secondary lesion) ([2]; oral 1 mg./kg., Day 21): 20% | % Inhibition of Swelling (primary lesion) ([2]; oral 1 mg./kg., Day 21): 19% | Mean Weight Gain ([2]; oral 1 mg./kg., Day 21): 65 grams | Dead/Treated At 21 Days ([2]; oral 1 mg./kg.): 9/54 | % Inhibition of Control Grade (secondary lesion) ([2]; oral 2 mg./kg., Day 14): 38% | % Inhibition of Swelling (primary lesion) ([2]; oral 2 mg./kg., Day 14): 51% | Mean Weight Gain ([2]; oral 2 mg./kg., Day 14): 68 grams | % Inhibition of Control Grade (secondary lesion) ([2]; oral 2 mg./kg., Day 21): 25% | % Inhibition of Swelling (primary lesion) ([2]; oral 2 mg./kg., Day 21): 24% | Mean Weight Gain ([2]; oral 2 mg./kg., Day 21): 68 grams | Dead/Treated At 21 Days ([2]; oral 2 mg./kg.): 8/57 | arthritic paw swelling [3]: inhibit arthritic paw swelling | joint and bone deterioration [3]: prevent joint and bone deterioration | Erythema Score (avg.) ([4]; oral 3.9 mg./kg., 1 hour): 1.2 | Erythema Score (avg.) ([4]; oral 3.9 mg./kg., 4 hours): 2.9 | Erythema Score (avg.) ([4]; oral 7.8 mg./kg., 1 hour): 0.6 | Erythema Score (avg.) ([4]; oral 7.8 mg./kg., 4 hours): 2.3 | Erythema Score (avg.) ([4]; oral 15.6 mg./kg., 1 hour): 0 | Erythema Score (avg.) ([4]; oral 15.6 mg./kg., 4 hours): 2.0 | Erythema Score (avg.) ([4]; oral 31.3 mg./kg., 1 hour): 0.1 | Erythema Score (avg.) ([4]; oral 31.3 mg./kg., 4 hours): 1.9 | Erythema Score (avg.) ([4]; oral 62.5 mg./kg., 1 hour): 0 | Erythema Score (avg.) ([4]; oral 62.5 mg./kg., 4 hours): 1.3 | Erythema Score (avg.) ([4]; oral 125 mg./kg., 1 hour): 0 | Erythema Score (avg.) ([4]; oral 125 mg./kg., 4 hours): 1.3 | Erythema Score (avg.) ([4]; oral 250 mg./kg., 1 hour): 0 | Erythema Score (avg.) ([4]; oral 250 mg./kg., 4 hours): 1.0

C/C(O)=C(\C#N)C(=O)c1ccccc1 [Cis-2-benzoyl-3-hydroxy-crotononitrile, Cis-2-benzoyl-3-hydroxycrotononitrile]
C/T Edema Ratio [1]: 2.3 | % Inhibition of Control Grade (secondary lesion) ([2]; oral 25 mg./kg., Day 14): 10% | % Inhibition of Swelling (primary lesion) ([2]; oral 25 mg./kg., Day 14): 26% | Mean Weight Gain ([2]; oral 25 mg./kg., Day 14): 37 grams | % Inhibition of Control Grade (secondary lesion) ([2]; oral 25 mg./kg., Day 21): 1% | % Inhibition of Swelling (primary lesion) ([2]; oral 25 mg./kg., Day 21): 14% | Mean Weight Gain ([2]; oral 25 mg./kg., Day 21): 28 grams | Dead/Treated At 21 Days ([2]; oral 25 mg./kg.): 3/18 | % Inhibition of Control Grade (secondary lesion) ([2]; oral 50 mg./kg., Day 14): 14% | % Inhibition of Swelling (primary lesion) ([2]; oral 50 mg./kg., Day 14): 64% | Mean Weight Gain ([2]; oral 50 mg./kg., Day 14): 51 grams | % Inhibition of Control Grade (secondary lesion) ([2]; oral 50 mg./kg., Day 21): 17% | % Inhibition of Swelling (primary lesion) ([2]; oral 50 mg./kg., Day 21): 54% | Mean Weight Gain ([2]; oral 50 mg./kg., Day 21): 45 grams | Dead/Treated At 21 Days ([2]; oral 50 mg./kg.): 3/36 | % Inhibition of Control Grade (secondary lesion) ([2]; oral 100 mg./kg., Day 14): 38% | % Inhibition of Swelling (primary lesion) ([2]; oral 100 mg./kg., Day 14): 68% | Mean Weight Gain ([2]; oral 100 mg./kg., Day 14): 43 grams | % Inhibition of Control Grade (secondary lesion) ([2]; oral 100 mg./kg., Day 21): 46% | % Inhibition of Swelling (primary lesion) ([2]; oral 100 mg./kg., Day 21): 53% | Mean Weight Gain ([2]; oral 100 mg./kg., Day 21): 41 grams | Dead/Treated At 21 Days ([2]; oral 100 mg./kg.): 5/18 | progression of the arthritis and associated joint deterioration ([2]; oral, days 0 through 13): appears to suppress the progression of the arthritis and associated joint deterioration | Erythema Score (avg.) ([4]; oral 15.6 mg./kg., 1 hour): 2.3 | Erythema Score (avg.) ([4]; oral 15.6 mg./kg., 4 hours): 2.5 | Erythema Score (avg.) ([4]; oral 31.3 mg./kg., 1 hour): 0.8 | Erythema Score (avg.) ([4]; oral 31.3 mg./kg., 4 hours): 2.3 | Erythema Score (avg.) ([4]; oral 62.5 mg./kg., 1 hour): 0.8 | Erythema Score (avg.) ([4]; oral 62.5 mg./kg., 4 hours): 2.4 | Erythema Score (avg.) ([4]; oral 125 mg./kg., 1 hour): 0 | Erythema Score (avg.) ([4]; oral 125 mg./kg., 4 hours): 1.3
